Test results: ChEMBL document CHEMBL1201862, “PubChem BioAssay data set” (2004)
Active and inactive are the calls of the source.

Key:
[1] = system: P388/ADR; assay: cells; format: functional; details: Mus musculus
[2] = system: P388; assay: cells; format: functional; details: Mus musculus
[3] = system: SN12K1; assay: cells; format: functional; details: Homo sapiens
[4] = molecular target: FAD-linked sulfhydryl oxidase ALR (Homo sapiens, UniProt P55789); assay: inhibitors of human ALR sulfhydryl oxidase, dose response, biochemical, H2O2 detection, luminescence, cherry-pick (AID 493248)
Sequence of FAD-linked sulfhydryl oxidase ALR (P55789 whole entry): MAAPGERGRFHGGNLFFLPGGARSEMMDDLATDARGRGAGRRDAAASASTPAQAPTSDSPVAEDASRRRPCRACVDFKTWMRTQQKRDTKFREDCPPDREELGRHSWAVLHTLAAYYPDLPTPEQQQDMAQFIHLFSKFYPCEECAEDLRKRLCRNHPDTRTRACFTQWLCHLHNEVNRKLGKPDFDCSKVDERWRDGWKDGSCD

[5] = control 3'UTR Renilla luciferase suppression, dose response, counter-screen for Shn3 inhibitor project, cell-based, Clone20-Shn3RL, cherry-picked (AID 624133); format: functional
[6] = Shn3 3'UTR reporter inhibitors, dose response, cell-based, Clone20 osteoblasts, firefly luciferase, cherry-picked (AID 624132); format: functional;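 further: firefly luciferase luminescence from reporter carrying the Shn3 3'UTR in osteoblasts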
[7] = HepG2 cell cytotoxicity, dose response, cytotoxicity control for Shn3 inhibitor project, CellTiter-Glo, cherry-picked (AID 624134); format: functional, cell-based
[8] = intracellular Trypanosoma cruzi inhibitors in host cells – cell-based, plate reader, cherry-pick samples, set 3, dose response (AID 651818); format: functional;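 further: compounds incubated with infected cells for about four days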
[9] = molecular target: T1, Replicative DNA helicase DnaB (Mycobacterium tuberculosis, UniProt P9WMR3); assay: DnaB intein splicing inhibitors, dose response, biochemical, cell-free fluorescence (AID 449749); format: functional
T1 sequence (P9WMR3 whole entry): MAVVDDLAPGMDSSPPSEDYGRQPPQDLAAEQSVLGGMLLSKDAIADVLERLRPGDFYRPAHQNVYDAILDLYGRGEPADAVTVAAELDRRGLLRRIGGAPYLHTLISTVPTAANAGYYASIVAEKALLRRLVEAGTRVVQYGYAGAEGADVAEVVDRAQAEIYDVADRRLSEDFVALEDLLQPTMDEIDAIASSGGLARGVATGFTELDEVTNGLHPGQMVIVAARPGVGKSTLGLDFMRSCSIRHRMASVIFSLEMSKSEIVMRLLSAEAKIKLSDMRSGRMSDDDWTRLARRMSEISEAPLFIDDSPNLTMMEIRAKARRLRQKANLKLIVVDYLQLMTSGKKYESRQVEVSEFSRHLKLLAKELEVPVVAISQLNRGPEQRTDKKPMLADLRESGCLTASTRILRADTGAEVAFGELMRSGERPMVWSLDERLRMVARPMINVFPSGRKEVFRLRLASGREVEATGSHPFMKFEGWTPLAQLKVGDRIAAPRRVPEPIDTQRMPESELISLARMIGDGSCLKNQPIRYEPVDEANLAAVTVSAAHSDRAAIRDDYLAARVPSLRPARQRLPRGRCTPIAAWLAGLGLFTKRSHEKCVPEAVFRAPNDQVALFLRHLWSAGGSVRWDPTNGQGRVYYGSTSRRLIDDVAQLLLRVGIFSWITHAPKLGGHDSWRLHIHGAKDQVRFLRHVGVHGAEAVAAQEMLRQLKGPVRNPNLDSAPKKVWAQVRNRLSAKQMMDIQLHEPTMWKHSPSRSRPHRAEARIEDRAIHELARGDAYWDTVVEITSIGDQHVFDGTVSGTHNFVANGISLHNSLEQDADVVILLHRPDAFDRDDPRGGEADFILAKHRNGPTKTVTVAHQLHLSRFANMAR

[10] = molecular target: T2, Heat shock factor protein 1 (Mus musculus, UniProt P38532); assay: HSF1 potentiators in luciferase reporter cells, confirmation, cell-based, NIH3T3, luminescence, dose retest (AID 435004); format: functional;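 further: stress induced by proteasome inhibitor MG132 added 30 min after compound; luciferase reporter driven by HSF1 response element in NIH3T3 cells; actives raise luminescence as potentiators of the MG132 stress response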
T2 sequence (P38532 whole entry): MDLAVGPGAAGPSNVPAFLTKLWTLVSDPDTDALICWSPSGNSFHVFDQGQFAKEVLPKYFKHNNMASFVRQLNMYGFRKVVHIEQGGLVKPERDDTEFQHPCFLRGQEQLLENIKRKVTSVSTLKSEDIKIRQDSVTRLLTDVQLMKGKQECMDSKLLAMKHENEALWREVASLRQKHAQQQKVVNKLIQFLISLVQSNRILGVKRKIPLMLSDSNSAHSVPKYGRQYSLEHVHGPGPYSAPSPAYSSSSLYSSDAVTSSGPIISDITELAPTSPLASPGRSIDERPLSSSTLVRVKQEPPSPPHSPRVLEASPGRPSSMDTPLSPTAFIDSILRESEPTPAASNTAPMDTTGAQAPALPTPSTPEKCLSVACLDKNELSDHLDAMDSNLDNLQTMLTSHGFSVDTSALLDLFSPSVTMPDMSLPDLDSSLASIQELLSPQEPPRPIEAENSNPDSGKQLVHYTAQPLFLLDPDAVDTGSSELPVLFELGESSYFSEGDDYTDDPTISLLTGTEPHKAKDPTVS

[11] = molecular target: T3, Protein RecA (Mycobacterium tuberculosis, UniProt P9WHJ3); assay: Fluorescence Cell-Free Homogeneous Dose Retest to Identify Inhibitors of RecA-Intein Splicing Activity. [Related pubchem assays (depositor defined):AID2097, AID2223, AID489010, AID492950]; format: functional
T3 sequence (P9WHJ3 whole entry): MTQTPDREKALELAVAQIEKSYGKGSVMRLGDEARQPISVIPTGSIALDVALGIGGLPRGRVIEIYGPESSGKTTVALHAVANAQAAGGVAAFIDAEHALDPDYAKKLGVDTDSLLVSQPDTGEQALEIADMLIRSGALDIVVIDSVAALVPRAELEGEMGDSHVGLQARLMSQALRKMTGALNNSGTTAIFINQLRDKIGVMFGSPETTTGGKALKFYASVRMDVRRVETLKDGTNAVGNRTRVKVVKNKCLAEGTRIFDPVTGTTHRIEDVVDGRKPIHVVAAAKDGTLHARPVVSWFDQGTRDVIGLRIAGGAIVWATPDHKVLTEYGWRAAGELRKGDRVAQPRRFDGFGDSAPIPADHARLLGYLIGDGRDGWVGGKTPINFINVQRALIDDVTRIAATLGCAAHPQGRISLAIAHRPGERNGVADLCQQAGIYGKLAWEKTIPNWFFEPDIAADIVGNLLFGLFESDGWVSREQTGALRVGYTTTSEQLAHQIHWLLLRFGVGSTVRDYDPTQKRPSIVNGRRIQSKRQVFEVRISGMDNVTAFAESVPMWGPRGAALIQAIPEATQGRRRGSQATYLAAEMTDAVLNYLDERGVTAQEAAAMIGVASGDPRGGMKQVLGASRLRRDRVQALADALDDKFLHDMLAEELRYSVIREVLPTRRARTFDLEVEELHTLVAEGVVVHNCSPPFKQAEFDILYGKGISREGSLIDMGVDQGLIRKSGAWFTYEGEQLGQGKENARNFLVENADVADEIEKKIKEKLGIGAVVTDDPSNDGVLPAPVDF

[12] = system: INS1; assay: beta cell apoptosis inhibitors, cytokine rescue, dose response, luminescence, retest (AID 449756); format: functional, cell-based; details: Rattus norvegicus;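 further: cell death triggered by IL-1 beta plus TNF-alpha plus IFN-gamma mixture; protective hits raise ATP signal compared with cytokine alone wells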
[13] = system: BJ; assay: cytotoxicity toward BJ-TERT-LT-ST fibroblasts, dose response, cell-based, RAS-independent, luminescence (AID 1935); format: functional; details: Homo sapiens;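 further: BJ fibroblasts immortalized with TERT plus LT and ST oncogenes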
[14] = system: BJ; assay: cytotoxicity toward BJ-TERT fibroblasts, dose response, cell-based, RAS-independent, luminescence (AID 1933); format: functional; details: Homo sapiens
[15] = cytotoxicity toward DRD oncogenic fibroblasts, dose response, cell-based, non-viral oncogenic, luminescence (AID 1934); format: functional; details: Homo sapiens
[16] = system: BJ; assay: cells; format: functional, cell-based; details: Homo sapiens

SMILES	GI50 [1]	GI50 [2]	GI50 [3]	AC50 [4]	further results
O=[N+]([O-])c1ccc(Nc2cccc3c4cc[nH]c(-c5ccccc5)c-4nc23)c([N+](=O)[O-])c1	14.3 µM (inactive)	20.1 µM (inactive)	10 µM (inactive)	–	–
CC1(C)S[C@@H]2[C@H](NC(=O)CCC[C@@H](N)C(=O)O)C(=O)N2[C@H]1C(=O)O [ADICILLIN]	> 50 µM (inactive)	> 50 µM (inactive)	> 50 µM (inactive)	–	–
COc1cccc(CNn2cnnc2)c1O	–	–	–	2.23 µM (active)	–
COc1ccc(NC2CCCN(C(=O)c3cn(C)c4ccccc34)C2)cc1 (configuration not stated)	–	–	–	3.1 µM (active)	–
O=C(Nc1ccc(F)c(F)c1)c1ccc(F)c(S(=O)(=O)N2CCC3(CC2)OCCO3)c1	–	–	–	–	AC50 [5]: 11.2 µM (active); AC50 [6]: 12.2 µM (active); AC50 [7]: 42.3 µM (active)
C[C@@H]1CN([C@H](C)CO)C(=O)c2cc(NC(=O)Cc3cn(C)c4ccccc34)ccc2O[C@@H]1CN(C)C(=O)Nc1ccc(C(F)(F)F)cc1	–	–	–	–	AC50 [8]: 3.26 µM (active)
O=C(C1CCCCC1)N1CCN=C1SCc1cccnc1	–	–	–	0.097 µM (active)	–
CCCCNC1C(CC)C(CCC)C(C#N)(C#N)C1(C#N)C#N (configuration not stated)	–	–	–	–	AC50 [9]: > 380 µM (inactive); EC50 [10]: 11.1 µM (active); EC50 [11]: 2.36 µM (active)
COc1cc(NC(=O)COc2cccc3c2OC(C)(C)C3)cc(OC)c1OC	–	–	–	–	AC50 [5]: 3.03 µM (active); AC50 [6]: 4.38 µM (active)
Cc1ccc(S(=O)(=O)N2CCN(c3ncnc4ccccc34)CC2)cc1	–	–	–	–	AC50 [5]: 13.7 µM (active); AC50 [12]: 4.61 µM (active); AC50 [6]: 1.56 µM (active); AC50 [7]: 4.03 µM (active)
CCCCNC(=O)c1ccc(CS(=O)(=O)c2ccc(C)cc2)o1	–	–	–	15.6 µM (active)	–
O=C(NC1CC1)c1ccc(CSCc2ccccc2Cl)o1	–	–	–	0.549 µM (active)	–
CC(C)=CCc1c(O)ccc2c1OC1c3ccc(O)c(CC=C(C)C)c3OCC21 (configuration not stated)	7.31 µM (inactive)	5.55 µM (inactive)	4.92 µM (inactive)	–	–
O=C(O)CCC(NC(=O)c1ccc(Nc2cnc3cc(C(F)(F)F)ccc3n2)cc1)C(=O)O (configuration not stated)	> 100 µM (inactive)	> 100 µM (inactive)	> 100 µM (inactive)	–	–
O=C(Nc1ccc(Cl)cn1)c1cccc(F)c1	–	–	–	–	EC50 [13]: > 150 µM (inconclusive); EC50 [14]: 18.4 µM (active); EC50 [15]: 18.4 µM (active); EC50 [16]: 35.6 µM (active)
CN(C)CCNc1c([N+](=O)[O-])cc2c3c(cccc13)C(=O)N(CCN(C)C)C2=O	1.87 µM (inactive)	0.925 µM (active)	7.83 µM (inactive)	–	–
